# Like-named read-outs stand apart in the source and are kept apart here.
# Key:
# [1] = Solubility in water at 20° C. (saturated solubility); assay type: physicochemical
# Description: As the poorly water-soluble solvent, at least an alcohol having a vapor pressure at 20° C. of 0.5 mmHg or less and a surface tension of 30.0 mN/m or more (hereinafter also called “poorly water-soluble alcohol”) is used.
# Vapor pressure at 20° C. = assay type: physicochemical
# Description: (§1) The alcohol used as the poorly water-soluble solvent has a vapor pressure at 20° C. of 0.5 mmHg or less and a surface tension of 30.0 mN/m or more as described above. When a poorly water-soluble alcohol having a vapor pressure at 20° C. of more than 0.5 mmHg forms a film on an ejection opening of a recording head, the film evaporates unfortunately, and the effect of suppressing water evaporation is reduced. In consideration of this point, the poorly water-soluble alcohol preferably has a vapor pressure at 20° C. of 0.2 mmHg or less and more preferably 0.1 mmHg or less. Meanwhile, a poorly water-soluble alcohol having a surface tension of less than 30.0 mN/m has a weak intermolecular force, and thus the poorly water-soluble alcohol cannot form a film even when separated from an ink. In consideration of this point, the poorly water-soluble alcohol preferably has a surface tension of 36.0 mN/m or more. The poorly water-soluble alcohol preferably has a surface tension of 50 mN/m or less.
# Surface tension = assay type: physicochemical
# Description: The present invention will now be more specifically described with reference to preferred embodiments, but the invention is not intended to be limited to the following embodiments. In the present specification, an aqueous ink for ink jet may be simply called “ink”. Physical property values are values determined at normal temperature (25° C.) unless otherwise noted.
# as §1
# [2] = Partition coefficient (n-octanol / water), common logarithm; conditions: for LogPA: poorly water-soluble alcohol (solvent A); for LogPB: highly water-soluble solvent (solvent B); for Log partition coefficient: solvents used in Comparative Examples
# [3] = solvents used in Comparative Examples
Solubility [1] [g/100 g-H2O],Vapor pressure (Vapor pressure at 20° C.) [mmHg],Surface tension (Surface tension) [mN/m],LogPA [2],Compound,LogPB [2],further results
1.10,0.0,37.7,1.51,CC(O)COc1ccccc1 (centres unmarked) [1-Phenoxy-2-propanol],,
,,,,O=C1CCCN1 [2-Pyrrolidone],−1.01,
0.57,0.0,38.9,1.88,OCCCc1ccccc1 [3-Phenyl-1-propanol],,
0.10,0.0,38.3,2.40,OCCCCc1ccccc1 [4-Phenyl-1-butanol],,
,,,,CC(=O)OCc1ccccc1 [Benzyl acetate],,"Solubility [1, 3]: 0.30 g/100 g-H2O; Vapor pressure (Vapor pressure at 20° C.; [3]): 0.2 mmHg; Surface tension (Surface tension; [3]): 35.9 mN/m; Log partition coefficient [2]: 1.84"
4.29,0.1,39.0,1.03,OCc1ccccc1 [Benzyl alcohol],,
,,,,OCCO [Ethylene glycol],−1.69,
,,,,"CCCCCO [Example 1-Pentanol, 1-Pentanol]",,"Solubility [1, 3]: 2.20 g/100 g-H2O; Vapor pressure (Vapor pressure at 20° C.; [3]): 1.5 mmHg; Surface tension (Surface tension; [3]): 25.5 mN/m; Log partition coefficient [2]: 1.41"
,,,,OCC(O)CO [Glycerol],−2.32,
,,,,C=CC(C)(O)CCC=C(C)C (centres unmarked) [Linalool],,"Solubility [1, 3]: 1.50 g/100 g-H2O; Vapor pressure (Vapor pressure at 20° C.; [3]): 0.2 mmHg; Surface tension (Surface tension; [3]): 26.6 mN/m"
,,,,COCCOCCO [Methyl carbitol],−1.16,
2.20,0.1,39.7,,OCCc1ccccc1 [Phenethyl alcohol],,
,,,,O=CCc1ccccc1 [Phenylacetaldehyde],,Vapor pressure (Vapor pressure at 20° C.; [3]): 0.4 mmHg; Surface tension (Surface tension; [3]): 35.9 mN/m
,,,,CC(O)CO (centres unmarked) [Propylene glycol],−1.34,
≥ 20,,,,OCCOCCOCCO [Triethylene glycol],−1.87,
,,,,COc1ccc(C=O)cc1 [p-Anisaldehyde],,"Solubility [1, 3]: 0.40 g/100 g-H2O; Vapor pressure (Vapor pressure at 20° C.; [3]): 0.0 mmHg; Surface tension (Surface tension; [3]): 37.2 mN/m"

Compound,Solubility [1] [g/100 g-H2O],Vapor pressure (Vapor pressure at 20° C.) [mmHg],Surface tension (Surface tension) [mN/m],LogPA [2],LogPB [2],further results
CC(O)Cc1ccccc1 (centres unmarked) [1-Phenyl-2-propanol],0.58,0.1,37.3,1.71,,
OCCOc1ccccc1 [2-Phenoxyethanol],2.67,0.0,40.0,1.16,,

# Reference: US10836921B2, “Ink, ink cartridge, and ink jet recording method” (CANON KABUSHIKI KAISHA, priority 2016, dated 2020)
